US4278658A, “Deodorant composition” (priority 1978, dated 1981)

Tests used:
[1] = molecular target: T1, lipoxidase (ECl.12.1.13) (Glycine max, UniProt P08170); experiment: Lipoxidase test: inhibition of oxidation of linoleic acid by lipoxidase; format: biochemical; set-up: inhibition: concentration or dose not given beside the values; settings: for inhibition / inhibition at 0.5 % strength: read-out: LIC (lipoxidase inhibiting capacity)
T1 sequence (P08170 1-839): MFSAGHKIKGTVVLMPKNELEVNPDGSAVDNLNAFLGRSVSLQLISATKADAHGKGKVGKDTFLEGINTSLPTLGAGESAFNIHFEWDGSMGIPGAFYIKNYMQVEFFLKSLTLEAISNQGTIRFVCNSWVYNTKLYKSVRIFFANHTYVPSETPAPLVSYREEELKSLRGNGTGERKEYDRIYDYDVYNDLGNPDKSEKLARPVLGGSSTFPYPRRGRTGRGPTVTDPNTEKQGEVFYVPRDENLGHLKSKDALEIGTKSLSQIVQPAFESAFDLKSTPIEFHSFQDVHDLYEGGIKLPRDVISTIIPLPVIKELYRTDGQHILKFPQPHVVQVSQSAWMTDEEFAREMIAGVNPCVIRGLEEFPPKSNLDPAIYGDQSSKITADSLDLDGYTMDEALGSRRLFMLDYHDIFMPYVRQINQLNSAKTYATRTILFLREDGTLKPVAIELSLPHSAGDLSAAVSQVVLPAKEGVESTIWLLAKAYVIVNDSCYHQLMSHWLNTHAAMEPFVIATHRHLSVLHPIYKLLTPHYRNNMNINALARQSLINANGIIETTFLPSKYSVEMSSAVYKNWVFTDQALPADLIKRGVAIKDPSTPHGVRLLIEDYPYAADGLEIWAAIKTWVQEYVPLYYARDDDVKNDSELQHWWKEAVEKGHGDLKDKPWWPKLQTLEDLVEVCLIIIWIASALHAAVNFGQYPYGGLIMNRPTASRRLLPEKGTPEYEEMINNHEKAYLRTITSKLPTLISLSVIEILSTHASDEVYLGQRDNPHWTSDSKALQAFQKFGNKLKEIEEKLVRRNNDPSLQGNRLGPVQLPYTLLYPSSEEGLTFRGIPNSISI

[2] = Morpholine test: depression of the partial vapour pressure of morpholine beyond Raoult's Law; settings: morpholine 0.25 g + material 1 g, 37° C., 30 minutes, headspace GC
[3] = % inhibition = 100 (S1-S2)/S1, 0.5% by weight solution of material in ethanol in test substrate, borate buffer pH 9.0, 234 nm

Row | Compound | inhibition ([1]; pH 9) | RVR (Raoult variance ratio) [2] | inhibition at 0.5 % strength ([1]; pH 9) | LIC (lipoxidase inhibiting capacity) [1, 3] | LIC (lipoxidase inhibiting capacity) ([1]; pH 9)
1 | CC1COCc2cc3c(cc21)C(C)(C)C(C)C3(C)C (stereo not drawn) [1,3,4,6,7,8-Hexahydro-4,6,6,7,8,8-hexamethyl cyclopenta-α-2-benzopyran] | 100% | – | – | – | –
2 | CCCCCCCC1CCCC1=O (stereo not drawn) [2-n-Heptylcyclopentanone] | 56% | 1.05 | – | – | –
3 | CC1(C)CCCC2(C)C1CCC1(C)OCCC12 (stereo not drawn) [3a-Methyl-dodecahydro-6,6,9a-trimethylnaphtho(2,1-b)furan] | 58% | 1.30 | – | – | –
4 | O=C(OCc1ccccc1)c1ccccc1O [Benzyl salicylate] | – | 1.58 | 0% | – | –
5 | Cc1ccc(C(C)C)cc1O [Carvacrol] | – | 1.43 | 32% | – | –
6 | O=c1ccc2ccccc2o1 [Coumarin] | 58% | 1.22 | – | – | –
7 | CCOC(=O)c1ccccc1C(=O)OCC [Diethyl phthalate] | – | 1.20 | 79% | – | –
8 | CCOc1cc(C=O)ccc1O [Ethyl vanillin] | – | 1.43 | 100% | – | –
9 | CCCCCCC(CCOC(C)=O)OC(C)=O (stereo not drawn) [Nonanediol-1,3-diacetate] | 33% | 1.17 | – | – | –
10 | CCCCCC1CCC(=O)O1 (stereo not drawn) [Nonanolide-1:4] | 92% | 0.87 | – | – | –
11 | OCCc1ccccc1 [Phenylethyl alcohol] | 22% | 1.24 | – | – | –
12 | CC(C)CCOC(=O)c1ccccc1O [iso-Amyl salicylate] | 95% | 1.24 | – | – | –
13 | C/C=C\c1ccc(O)c(OC)c1 [iso-Eugenol] | – | 1.48 | 100% | – | –
14 | CC(=O)OC1CCCCC1C(C)(C)C (stereo not drawn) [o-t-Butylcyclohexyl acetate] | 52% | 1.08 | – | – | –
15 | CCC(C)(C)C1CCC(=O)CC1 [p-t-Amyl cyclohexanone] | 50% | 1.10 | – | – | –
16 | CC(C=O)Cc1ccc(C(C)(C)C)cc1 (stereo not drawn) [p-t-Butyl-α-methyl hydrocinnamic aldehyde] | 74% | – | – | – | –
17 | CC(=O)OC1CCC(C(C)(C)C)CC1 (stereo not drawn) [p-t-Butylcyclohexyl acetate] | 54% | 0.98 | – | – | –
18 | CC(=O)c1ccc2ccccc2c1 [β-Methyl naphthyl ketone] | – | 0.96 | 100% | – | –
19 | Dimyrcetol | – | 1.22 | – | 16% | –
20 | Tetrahydromuguol | – | 1.23 | – | – | 24%
21 | i-Nonyl acetate | – | 0.83 | – | 50% | –
22 | i-Nonyl formate | – | 1.49 | – | – | 19%
